Values of other authors in patent publication US20040039017A1, “Urotensin-II receptor antagonists” (priority 2000, published 2004).

System: rat-isolated aorta
Details: Ames et al. Nature 1999, 401, 282

SMILES: CC(C)[C@H](NC(=O)[C@@H]1CSSC[C@H](NC(=O)[C@H](CC(=O)O)NC(=O)[C@@H]2CCCN2C(=O)[C@@H](NC(=O)[C@@H](N)CCC(=O)O)[C@@H](C)O)C(=O)N[C@@H](Cc2ccccc2)C(=O)N[C@@H](Cc2c[nH]c3ccccc23)C(=O)N[C@@H](CCCCN)C(=O)N[C@@H](Cc2ccc(O)cc2)C(=O)N1)C(=O)O [Human Urotensin-II]
- contractile activity: most potent contractile agonist identified to date
